Literature values, collected in patent publication US20060111442A1, “Use of methyl pyruvate to increase cellular energy production downstream of glycolysis for the PARP-1 ablation of HIV without necrotic cell death caused by continuous, chronic PARP-1 activation through the concomitant depletion of ATP and NAD” (priority 2004, published 2006).

What was measured:
[1] = system: guinea-pig cerebral cortical synaptosomes
mGPDH-deficient islets = settings: both NADH shuttles halted
[2] = 1 mmol.kg-1.d-1, 7 d; P<0.01
Na(+)-K(+)-ATPase = settings: 10 microM
PDK4 [3] = settings: feeding
PDK4 [4] = settings: control and high-fat-fed rats
[5] = system: hepatic stellate cells (HSC); settings: 10 microm 15dPGJ(2); 0.1 approximately 10 microm BRL49653; WY14643 >100 microm, not <10 microm

## NOCC(=O)O [amino-oxyacetic acid]
[1]
  negative shift in the cytosolic NAD+/NADH redox potential: 26 mV
mGPDH-deficient islets
  glucose-induced insulin secretion: almost completely abrogated

## CCO[C@@H](Cc1ccc(OCCc2ccc(OS(C)(=O)=O)cc2)cc1)C(=O)O [tesaglitazar]
[2]
  insulin sensitivity (glucose infusion rate during hyperinsulinemic-euglycemic clamp): improved the insulin sensitivity

## C[C@@H]1O[C@@H](O[C@H]2C[C@@H](O)[C@]3(CO)[C@H]4[C@H](O)C[C@]5(C)[C@@H](C6=CC(=O)OC6)CC[C@]5(O)[C@@H]4CC[C@]3(O)C2)[C@H](O)[C@H](O)[C@H]1O [ouabain]
Na(+)-K(+)-ATPase
  glycolysis and lactate production: decreased glycolysis and lactate production

## Cc1cccc(Nc2cc(Cl)nc(SCC(=O)O)n2)c1C [WY14643]
PDK4 [3]
  pyruvate dehydrogenase kinase activity, PDK4 protein, PDK4 mRNA in gastrocnemius muscle: induced large increases
PDK4 [4]
  hepatic PDK4 protein: significantly increased PDK4 protein
[5]
  HSC DNA and collagen synthesis: inhibited
